What was measured:
COX-1 = target: T1, COX-1 (Homo sapiens, UniProt P23219); assay: Assay for the COX-1 inhibitory activity using U-937 (PGE2 inhibition); format: cell-based; conditions: U-937 human lymphoma cells, test compound 1 μM, PGE2 vs DMSO control; read-out: Cyclooxygenase (COX) Inhibition (%) COX-1 (1 μM)
T1 construct: host or cells: U-937 human lymphoma cells
Method: The collected cells were diluted with HBSS (×1, Hank's balanced salt solution) to a concentration of 1×10^6 cells/ml. 1 ml of the dilute cell solution was placed into each well of 12-well plates. 5 μl of 1 μM solution of a test compound in DMSO and 5 μl of DMSO as a control were added to the wells. The wells were incubated in CO2 incubator at 37° C. for 15 minutes. Separately, 10 mM stock solution of arachidonic acid in ethanol was diluted ten times in ethanol to prepare 1 mM solution of arachidonic acid. Arachidonic acid acts as a substrate. 10 μl of the 1 mM solution of arachidonic acid was added to each well and incubated at CO2 incubator at 37° C. for 30 minutes. The cell solution of each well was placed in a centrifuge test tube and centrifuged at 10,000 rpm at 4° C. for 5 minutes. The concentration of PGE2 in the collected cells and the supernatant was quantified by means of a monoclonal kit (Cayman Chemicals). The percentages of PGE2 inhibition in a group of the test compound-treated cells in relation to a group of the DMSO-treated cells were calculated. Based on the calculated values, the COX-1 inhibitory activities were evaluated.
(§1) The percentages of the COX inhibition were calculated according to the following equation:
(§2) % Inhibition=(concentration of PGE2 in test compound-untreated sample —concentration of PGE2 in test compound-treated sample)/(concentration of PGE2 in test compound-untreated sample)×100

COX-2 = target: T2, COX-2 (Mus musculus, UniProt Q05769); assay: Assay for the COX-2 inhibitory activity using RAW 264.7 cell line (PGE2 inhibition); format: cell-based; conditions: RAW264.7, RAW 264.7 cells, test compound 10 nM, interferon/LPS 18 hours, read-out: Cyclooxygenase (COX) Inhibition (%) COX-2 (10 nM)
T2 construct: host or cells: RAW 264.7 cells, aspirin-pretreated, then induced with interferon and LPS
T2 sequence (Q05769 18-604): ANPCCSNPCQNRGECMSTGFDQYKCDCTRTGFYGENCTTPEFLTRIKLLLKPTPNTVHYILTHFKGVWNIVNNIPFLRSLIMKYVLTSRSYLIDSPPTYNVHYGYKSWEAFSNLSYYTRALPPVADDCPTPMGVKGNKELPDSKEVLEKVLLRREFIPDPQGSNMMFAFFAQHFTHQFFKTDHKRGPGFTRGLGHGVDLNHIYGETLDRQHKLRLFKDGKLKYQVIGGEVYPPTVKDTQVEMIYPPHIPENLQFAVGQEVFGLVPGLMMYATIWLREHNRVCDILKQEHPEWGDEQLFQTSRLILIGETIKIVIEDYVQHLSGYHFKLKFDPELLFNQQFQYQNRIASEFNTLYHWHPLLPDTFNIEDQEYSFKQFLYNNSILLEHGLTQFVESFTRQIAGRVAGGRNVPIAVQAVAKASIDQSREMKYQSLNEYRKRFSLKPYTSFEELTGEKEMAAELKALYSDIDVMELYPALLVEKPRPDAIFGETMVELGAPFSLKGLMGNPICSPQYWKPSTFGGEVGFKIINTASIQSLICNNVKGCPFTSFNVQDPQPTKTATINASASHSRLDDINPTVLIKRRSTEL
Method: Each well was treated with 250 μM of aspirin and incubated at 37° C. for 2 hours. After the culture media were replaced with new culture media, the new culture media were treated with a test compound (10 nM) and incubated for 30 minutes. Then, each well was treated with interferon (100 units/ml) and lipopolysaccharide (LPS, 100 ng/ml) and incubated for 18 hours. The culture media were transferred to other test tubes. The concentration of PGE2 was quantified by means of the EIA kit (Cayman Chemicals).
as §1, §2

T1 sequence (P23219 24-599): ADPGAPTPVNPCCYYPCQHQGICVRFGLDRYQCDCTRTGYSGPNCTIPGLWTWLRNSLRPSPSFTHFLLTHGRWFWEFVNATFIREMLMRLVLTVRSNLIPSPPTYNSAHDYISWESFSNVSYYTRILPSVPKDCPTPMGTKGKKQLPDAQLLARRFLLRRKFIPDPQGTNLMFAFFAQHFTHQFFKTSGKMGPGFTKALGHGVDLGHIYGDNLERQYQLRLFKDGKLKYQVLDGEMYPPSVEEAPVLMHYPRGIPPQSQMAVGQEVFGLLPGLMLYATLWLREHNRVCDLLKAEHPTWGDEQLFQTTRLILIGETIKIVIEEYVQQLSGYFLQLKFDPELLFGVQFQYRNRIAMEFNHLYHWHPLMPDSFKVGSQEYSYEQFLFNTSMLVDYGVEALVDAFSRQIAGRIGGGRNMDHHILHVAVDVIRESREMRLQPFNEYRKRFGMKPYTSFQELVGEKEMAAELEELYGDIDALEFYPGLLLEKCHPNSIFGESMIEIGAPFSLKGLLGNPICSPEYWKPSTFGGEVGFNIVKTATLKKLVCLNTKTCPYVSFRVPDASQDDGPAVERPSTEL

inhibition at 1 µM (COX-1) [%]	inhibition at 0.01 µM (COX-2) [%]	Structure (SMILES)
44.5	13.5	CS(=O)(=O)c1ccc(-n2nc(C(F)(F)F)nc2-c2ccc3ccccc3c2)cc1F [Example 33, 1-(3-fluoro-4-methanesulfonylphenyl)-5-(naphthalene-2-yl)-3-trifluoromethyl-1H-1,2,4-triazole]
23.2	27.8	Cc1cccc(-c2nc(C(F)(F)F)nn2-c2ccc(S(C)(=O)=O)c(F)c2)c1 [Example 32, 1-(3-fluoro-4-methanesulfonylphenyl)-5-(3-methylphenyl)-3-trifluoromethyl-1H-1,2,4-triazole]
11.2	41.5	CS(=O)(=O)c1ccc(-n2nc(C(F)(F)F)nc2-c2ccc3c(c2)OCO3)cc1F [Example 34, 5-([1,3]benzodioxole-5-yl)-1-(3-fluoro-4-methanesulfonylphenyl)-3-trifluoromethyl-1H-1,2,4-triazole]
26.4	16.2	COc1ccc(-c2nc(C(F)(F)F)nn2-c2ccc(S(C)(=O)=O)c(F)c2)cc1F [Example 31, 1-(3-fluoro-4-methanesulfonylphenyl)-5-(3-fluoro-4-methoxyphenyl)-3-trifluoromethyl-1H-1,2,4-triazole]
21.2	15.5	CS(=O)(=O)c1ccc(-n2nc(C(F)(F)F)nc2-c2ccc(F)c(F)c2)cc1F [Example 35, 1-(3-fluoro-4-methanesulfonylphenyl)-5-(3,4-difluorophenyl)-3-trifluoromethyl-1H-1,2,4-triazole]

The next lines start with the compound.

Structure (SMILES)	inhibition at 1 µM (COX-1) [%]	inhibition at 0.01 µM (COX-2) [%]
COc1ccc(-c2nc(C(F)(F)F)nn2-c2ccc(S(C)(=O)=O)c(F)c2)cc1 [Example 23, 1-(3-fluoro-4-methanesulfonylphenyl)-5-(4-methoxyphenyl)-3-trifluoromethyl-1H-1,2,4-triazole]	15.5	41.2
CS(=O)(=O)c1ccc(-n2nc(C(F)(F)F)nc2-c2ccc(Cl)cc2)cc1F [Example 26]	27.4	22.3
CS(=O)(=O)c1ccc(-n2nc(C(F)(F)F)nc2-c2ccc(Br)cc2)cc1F [Example 25, 1-(3-fluoro-4-methanesulfonylphenyl)-5-(4-bromophenyl)-3-trifluoromethyl-1H-1,2,4-triazole]	19.5	13.7
Cc1ccc(-c2nc(C(F)(F)F)nn2-c2ccc(S(C)(=O)=O)c(F)c2)cc1 [Example 27, 1-(3-fluoro-4-methanesulfonylphenyl)-5-(4-methylphenyl)-3-trifluoromethyl-1H-1,2,4-triazole]	26.4	19
CS(=O)(=O)c1ccc(-n2nc(C(F)(F)F)nc2-c2cccc(Cl)c2)cc1F [Example 29, 1-(3-fluoro-4-methanesulfonylphenyl)-5-(3-chlorophenyl)-3-trifluoro methyl-1H-1,2,4-triazole]	11.1	16.4
CS(=O)(=O)c1ccc(-n2nc(C(F)(F)F)nc2-c2ccc(F)cc2)cc1F [Example 24, 1-(3-fluoro-4-methanesulfonylphenyl)-5-(4-fluorophenyl)-3-trifluoro methyl-1H-1,2,4-triazole]	18.8	18.5
CCOc1ccc(-c2nc(C(F)(F)F)nn2-c2ccc(S(C)(=O)=O)c(F)c2)cc1 [Example 28, 1-(3-fluoro-4-methanesulfonylphenyl)-5-(4-ethoxyphenyl)-3-trifluoromethyl-1H-1,2,4-triazole]	25.7	15.6
CS(=O)(=O)c1ccc(-n2nc(C(F)(F)F)nc2-c2cccc(F)c2)cc1F [Example 30, 1-(3-fluoro-4-methanesulfonylphenyl)-5-(3-fluorophenyl)-3-trifluoro methyl-1H-1,2,4-triazole]	23.2	15.1
CS(=O)(=O)c1ccc(-n2nc(C(F)(F)F)nc2-c2ccccc2)cc1F [Example 22, 1-(3-fluoro-4-methanesulfonylphenyl)-5-phenyl-3-trifluoromethyl-1H-1,2,4-triazole]	32.8	13.7
